Values of other authors in patent US20230126271A1, “DEGRADER-ANTIBODY CONJUGATES AND METHODS OF USING SAME” (Anglex, Inc., priority 2020, published 2023).

Columns and labels:
[1] = in vivo
[2] = in vivo; remark: listed apart in the source

Compound: CN(C)CC#Cc1ccc(OCCCc2sc(N3CCc4cccc(C(=O)Nc5nc6ccccc6s5)c4C3)nc2C(=O)O)c(F)c1 [A115463]
- toxicity in the clinic [1]: on-target and dose-limiting thrombocytopenia

Compound: CC1(C)CCC(c2ccc(Cl)cc2)=C(CN2CCN(c3ccc(C(=O)NS(=O)(=O)c4ccc(N[C@H](CCN5CCOCC5)CSc5ccccc5)c(S(=O)(=O)C(F)(F)F)c4)cc3)CC2)C1 [ABT 263]
- toxicity in the clinic [1]: on-target and dose-limiting thrombocytopenia

Compound: COc1ccc(/C=C\c2cc(OC)c(OC)c(OC)c2)cc1OP(=O)(O)O [CA4P, Combretastatin]
- patients who experienced heart attacks while being treated [2]: seven
